This note sets out measurements from publication PMC11203676, “Synthesis, Molecular Electron Density Theory Study, Molecular Docking, and Pharmacological Evaluation of New Coumarin–Sulfonamide–Nitroindazolyl–Triazole Hybrids as Monoamine Oxidase Inhibitors” (International Journal of Molecular Sciences, 2024).

Each structure is given as a SMILES string.

The melting point is the temperature, or range, at which the solid turns liquid. As usually defined, the IC50 is the concentration needed to halve the response being measured. One may read the inhibition as the share of the control response that was lost under treatment.

In one data set the target is T1, hMAO-A (Homo sapiens, UniProt P21397).
T1 construct: purchased Sigma Aldrich (Milan, Italy); host or cells: baculovirus-infected insect cells
T1 sequence (P21397 1-527): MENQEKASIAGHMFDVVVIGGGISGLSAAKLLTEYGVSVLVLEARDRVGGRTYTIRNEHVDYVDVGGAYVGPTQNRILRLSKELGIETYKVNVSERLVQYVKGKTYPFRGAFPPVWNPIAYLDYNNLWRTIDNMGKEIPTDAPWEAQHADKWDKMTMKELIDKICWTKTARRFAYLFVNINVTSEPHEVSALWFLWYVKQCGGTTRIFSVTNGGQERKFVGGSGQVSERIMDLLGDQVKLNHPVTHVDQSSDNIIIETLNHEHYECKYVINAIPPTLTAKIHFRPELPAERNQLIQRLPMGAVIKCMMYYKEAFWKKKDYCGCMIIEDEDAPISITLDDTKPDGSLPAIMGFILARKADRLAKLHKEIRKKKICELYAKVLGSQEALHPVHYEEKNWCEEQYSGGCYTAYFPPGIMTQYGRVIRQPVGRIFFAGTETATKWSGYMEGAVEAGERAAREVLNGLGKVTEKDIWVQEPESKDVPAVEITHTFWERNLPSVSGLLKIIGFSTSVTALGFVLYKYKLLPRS
Kind of data set: biochemical. To be noted: for inhibition at 10 µM: read-out: hMAO-A % Inhibition. The method, then:
(§1) Human recombinant AChE, BChE from human serum, and human MAOs from baculovirus-infected insect cells were purchased from Sigma Aldrich (Milan, Italy). […] All experiments were carried out in triplicate and results expressed as mean ± SEM.
(§2) AChE/BChE and MAO A/B inhibition were, respectively, determined with the spectrophotometric method of Ellman, and a fluorimetric method using kynuramine as MAO substrate, as previously described.

The target in data set [1] is T2, hAChE (human recombinant AChE) (Homo sapiens, UniProt P22303).
T2 construct: purchased Sigma Aldrich (Milan, Italy)
T2 sequence (P22303 32-614): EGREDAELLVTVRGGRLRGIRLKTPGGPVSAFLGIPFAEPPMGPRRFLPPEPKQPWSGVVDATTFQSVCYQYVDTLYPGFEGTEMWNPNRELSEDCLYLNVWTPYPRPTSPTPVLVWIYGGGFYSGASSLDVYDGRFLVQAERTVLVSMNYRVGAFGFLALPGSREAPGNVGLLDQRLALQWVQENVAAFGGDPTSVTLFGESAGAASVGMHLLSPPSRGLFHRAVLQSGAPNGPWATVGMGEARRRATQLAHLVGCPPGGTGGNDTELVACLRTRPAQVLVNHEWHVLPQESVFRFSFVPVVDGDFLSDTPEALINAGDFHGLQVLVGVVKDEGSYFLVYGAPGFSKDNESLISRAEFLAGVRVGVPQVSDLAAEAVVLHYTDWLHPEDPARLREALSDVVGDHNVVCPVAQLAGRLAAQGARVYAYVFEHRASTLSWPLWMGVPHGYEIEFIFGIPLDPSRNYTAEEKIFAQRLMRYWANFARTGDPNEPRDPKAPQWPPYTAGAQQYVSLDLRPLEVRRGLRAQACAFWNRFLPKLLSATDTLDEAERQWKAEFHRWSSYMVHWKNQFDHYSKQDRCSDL
Kind of data set: biochemical. The method, then:
as §1, §2

For a further data set, the target named is T3, hMAO-B (Homo sapiens, UniProt P27338).
T3 construct: purchased Sigma Aldrich (Milan, Italy); host or cells: baculovirus-infected insect cells
T3 sequence (P27338 1-520): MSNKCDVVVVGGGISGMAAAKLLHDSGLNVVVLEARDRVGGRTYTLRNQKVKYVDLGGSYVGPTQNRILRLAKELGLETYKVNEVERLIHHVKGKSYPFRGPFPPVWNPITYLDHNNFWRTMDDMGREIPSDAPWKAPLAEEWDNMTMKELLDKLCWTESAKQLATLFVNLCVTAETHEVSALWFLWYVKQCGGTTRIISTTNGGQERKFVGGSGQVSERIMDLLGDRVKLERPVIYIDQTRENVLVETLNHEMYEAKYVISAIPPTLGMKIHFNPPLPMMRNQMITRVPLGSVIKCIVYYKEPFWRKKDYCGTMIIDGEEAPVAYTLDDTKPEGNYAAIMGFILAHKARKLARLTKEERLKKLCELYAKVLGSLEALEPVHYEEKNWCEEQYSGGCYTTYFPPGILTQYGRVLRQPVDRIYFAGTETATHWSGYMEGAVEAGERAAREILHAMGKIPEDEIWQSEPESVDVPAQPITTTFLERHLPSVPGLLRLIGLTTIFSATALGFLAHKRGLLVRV
Kind of data set: MAO-B inhibition, fluorimetric method with kynuramine as substrate. It is filed as biochemical. To be noted: read-out: hMAO-B % Inhibition. The method, then: as §1, §2

Data set [2] deals with T4, hBChE (BChE from human serum) (Homo sapiens, UniProt P06276).
T4 construct: BChE from human serum; purchased Sigma Aldrich (Milan, Italy); host or cells: human serum
T4 sequence (P06276 29-602): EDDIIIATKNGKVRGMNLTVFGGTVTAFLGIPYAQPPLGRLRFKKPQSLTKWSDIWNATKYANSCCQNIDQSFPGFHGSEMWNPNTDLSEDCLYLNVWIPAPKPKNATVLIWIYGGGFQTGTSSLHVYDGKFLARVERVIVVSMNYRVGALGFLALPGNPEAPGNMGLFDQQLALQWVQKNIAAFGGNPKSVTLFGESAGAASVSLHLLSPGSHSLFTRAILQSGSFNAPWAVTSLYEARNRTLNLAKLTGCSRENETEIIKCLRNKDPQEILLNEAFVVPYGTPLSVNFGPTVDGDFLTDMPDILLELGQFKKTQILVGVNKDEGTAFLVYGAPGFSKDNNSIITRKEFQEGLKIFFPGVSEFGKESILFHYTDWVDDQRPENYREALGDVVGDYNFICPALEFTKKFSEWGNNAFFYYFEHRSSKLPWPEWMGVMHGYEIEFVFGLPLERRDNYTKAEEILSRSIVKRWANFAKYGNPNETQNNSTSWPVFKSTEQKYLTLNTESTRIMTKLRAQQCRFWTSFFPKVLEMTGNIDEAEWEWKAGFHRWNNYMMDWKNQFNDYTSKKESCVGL
Kind of data set: BChE inhibition, spectrophotometric method of Ellman. It is filed as biochemical. The note with it: at 10 µM concentration; ni: no inhibition; mean ± SEM (n = 3). The procedure: as §1, §2
(In general: DTNB colorimetry detects thiols as they appear.)

Consider `CN(c1ccc2oc(=O)ccc2c1)S(=O)(=O)c1ccc(Cl)cc1`, for which the melting point fell in the range of 244 to 246 °C.

Take `Cc1ccc(S(=O)(=O)Nc2ccc3oc(=O)ccc3c2)cc1` [11a, 4-Methyl-N-(2-oxo-2H-chromen-6-yl)benzenesulfonamide]: the midpoint of inhibition against hMAO-A, the IC50, lay at 2.46 ± 0.67 µM. Further, the values for the inhibition at 10 µM (at hMAO-A; in data set [1]; on hMAO-B) were 76 ± 3%, 55 ± 3% and 45 ± 2%, respectively. The “hBChE % Inhibition” value in data set [2] is “ni”.

For the compound `COc1ccc(S(=O)(=O)Nc2ccc3oc(=O)ccc3c2)cc1` [11b, 4-Methoxy-N-(2-oxo-2H-chromen-6-yl)benzenesulfonamide], the figures for the inhibition at 10 µM (at hMAO-A; in data set [1]; at hMAO-B) were 26 ± 3%, 57 ± 4% and 34 ± 3%, respectively. Further, in data set [2], the “hBChE % Inhibition” value is given as “ni”.

Take `O=c1ccc2cc(NS(=O)(=O)c3ccc(Cl)cc3)ccc2o1` [11c, 4-Chloro-N-(2-oxo-2H-chromen-6-yl)benzenesulfonamide]: the inhibition at 10 µM at hMAO-A was found to be 9 ± 4%; in data set [1], 55 ± 3%; on hMAO-B, 26 ± 4%. Besides, the “hBChE % Inhibition” value in data set [2] is on record as “ni”.

For the compound `C#CCN(c1ccc2oc(=O)ccc2c1)S(=O)(=O)c1ccc(C)cc1` [13a, 4-Methyl-N-(2-oxo-2H-chromen-6-yl)-N-(prop-2-yn-1-yl)benzenesulfonamide], the inhibition at 10 µM was found to be 13 ± 5% at hMAO-A, 60 ± 3% in data set [1] and 12 ± 1% at hMAO-B. In addition, in data set [2], the “hBChE % Inhibition” value is on record as “ni”.

For the compound `C#CCN(c1ccc2oc(=O)ccc2c1)S(=O)(=O)c1ccc(OC)cc1` [13b, 4-Methoxy-N-(2-oxo-2H-chromen-6-yl)-N-(prop-2-yn-1-yl)benzenesulfonamide], the inhibition at 10 µM stood at 22 ± 7% at hMAO-A, 49 ± 3% in data set [1] and 28 ± 2% at hMAO-B. The “hBChE % Inhibition” value in data set [2] is “ni”.

On to `C#CCN(c1ccc2oc(=O)ccc2c1)S(=O)(=O)c1ccc(Cl)cc1` [13c, 4-Chloro-N-(2-oxo-2H-chromen-6-yl)-N-(prop-2-yn-1-yl)benzenesulfonamide], for which the inhibition at 10 µM at hMAO-A turned out to be 37 ± 5%; in data set [1] it was 48 ± 2%; on hMAO-B it was 20 ± 2%. Besides, the “hBChE % Inhibition” value in data set [2] is given as “ni”.

Turning to `Cc1ccc(S(=O)(=O)N(Cc2cn(CCn3ncc4ccc([N+](=O)[O-])cc43)nn2)c2ccc3oc(=O)ccc3c2)cc1` [14a, 4-Methyl-N-((1-(2-(6-nitro-1H-indazol-1-yl)ethyl)-1H-1,2,3-triazol-4-yl)methyl)-N-(2-oxo-2H-chromen-6-yl)benzenesulfonamide], the half-inhibitory concentration (IC50) at hMAO-A amounted to 14.8 ± 1.6 µM. In addition, the inhibition at 10 µM on hMAO-A came to 76 ± 5%; in data set [1], 51 ± 2%; at hMAO-B it was 39 ± 3%; in data set [2], 48 ± 4%.

`COc1ccc(S(=O)(=O)N(Cc2cn(CCn3ncc4ccc([N+](=O)[O-])cc43)nn2)c2ccc3oc(=O)ccc3c2)cc1` [14b, 4-Methoxy-N-((1-(2-(6-nitro-1H-indazol-1-yl)ethyl)-1H-1,2,3-triazol-4-yl)methyl)-N-(2-oxo-2H-chromen-6-yl)benzenesulfonamide]: the half-inhibitory concentration (IC50) against hMAO-A was found to be 16.9 ± 1.9 µM. Moreover, the inhibition at 10 µM on hMAO-A is 81 ± 5%; in data set [1] it was 44 ± 3%; at hMAO-B, 23 ± 4%; in data set [2], 31 ± 5%.

On hMAO-A, `O=c1ccc2cc(N(Cc3cn(CCn4ncc5ccc([N+](=O)[O-])cc54)nn3)S(=O)(=O)c3ccc(Cl)cc3)ccc2o1` [14c, 4-Chloro-N-((1-(2-(6-nitro-1H-indazol-1-yl)ethyl)-1H-1,2,3-triazol-4-yl)methyl)-N-(2-oxo-2H-chromen-6-yl)benzenesulfonamide] gave an IC50 of 28 ± 2.2 µM. The results for the inhibition at 10 µM (at hMAO-A; in data set [1]; on hMAO-B) were 67 ± 5%, 42 ± 1% and 45 ± 1%, respectively. Also, in data set [2], the “hBChE % Inhibition” value is reported as “ni”.
